Assay results taken from patent publication US20080312085A1, “Pesticidal Compositions” (priority 2005, published 2008).

Legend:
[1] = test system: Cowpea Aphid (aphis craccivora); assay: Cowpea aphid test, colonized potted cowpea plants sprayed; assay type: in vivo; details: population reduction recorded after 24, 72 and 120 hours, read-out: mortality in comparison with untreated controls
Experimental: B.3 Cowpea Aphid (aphis craccivora)
The active compounds were formulated in 50:50 acetone:water. Potted cowpea plants colonized with 100-150 aphids of various stages were sprayed after the pest population has been recorded. Population reduction was recorded after 24, 72, and 120 hours.

[2] = test system: Cotton Aphid (Aphis gossypii); assay: Cotton aphid test, cotyledons of infested cotton plants dipped; assay type: in vivo; details: 120 h, aphid mortality determined after 5 days, read-out: mortality in comparison with untreated controls
Description: B.1 Cotton Aphid (Aphis gossypii)
(§1) The active compounds were formulated in 50:50 acetone:water and 100 ppm Kinetica™ surfactant.
(§2) Cotton plants in the cotyledon stage (variety ‘Delta Pine’) are infested with approximately 100 laboratory-reared aphids by placing infested leaf sections on top of the test plants. The leaf sections are removed after 24 hr. The cotyledons of the intact plants are dipped into gradient solutions of the test compound. Aphid mortality on the treated plants, relative to mortality on check plants, is determined after 5 days.

[3] = test system: Green Peach Aphid (Myzus persicae); assay: Green peach aphid test, leaves of infested pepper plants dipped; assay type: in vivo; details: 120 h, aphid mortality determined after 5 days, read-out: mortality in comparison with untreated controls
Description: B.2 Green Peach Aphid (Myzus persicae)
as §1
as §2, with “Pepper” for “Cotton”, “2nd leaf-pair” for “cotyledon”, “‘California Wonder’)” for “‘Delta Pine’)”, “40” for “100”, “leaves” for “cotyledons”

[4] = test system: Vetch Aphid (Megoura viciae); assay: Vetch aphid test, sprayed bean leaf disks in microtiterplates; assay type: in vivo; details: foliar, 144 h, bean leaf disks sprayed with 2.5 μl, 6 days, read-out: mortality in comparison with untreated controls
Experimental: B.4 Vetch Aphid (Megoura viciae)
The active compounds were formulated in 1:3 DMSO:water. Bean leaf disks were placed into microtiterplates filled with 0.8% agar-agar and 2.5 ppm OPUS™. The leaf disks were sprayed with 2.5 μl of the test solution and 5 to 8 adult aphids were placed into the microtiterplates which were then closed and kept at 22-24° C. and 35-45% under fluorescent light for 6 days. Mortality was assessed on the basis of vital, reproduced aphids. Tests were replicated twice.

Row | melting point | SMILES | mortality at 300 ppm [1] | mortality at 300 ppm [2] | mortality at 300 ppm [3] | mortality at 2500 ppm [4]
1 | 71 to 73 °C | Clc1cccc(C(Cc2cc(Cl)c3ccccc3n2)NC2=NCCS2)c1Cl (centres unmarked) [Compound Example 12] | – | – | – | –
2 | 74 to 89 °C | Clc1cccc(C(Cc2cn(Cc3ccccc3)nn2)NC2=NCCS2)c1Cl (centres unmarked) [Compound Example 35] | – | – | – | –
3 | – | Clc1cccc(C(Cc2ccccn2)NC2=NCCS2)c1Cl (centres unmarked) [compound 1] | > 80% | > 80% | > 80% | –
4 | – | Cc1ccc(CC(NC2=NCCS2)c2cccc(Cl)c2Cl)nc1 (centres unmarked) [compound 3] | > 80% | > 80% | > 80% | –
5 | – | Cc1cccc(CC(NC2=NCCS2)c2cccc(Cl)c2Cl)n1 (centres unmarked) [compound 4] | > 80% | > 80% | > 80% | –
6 | – | Cc1cc(C)nc(CC(NC2=NCCS2)c2cccc(Cl)c2Cl)c1 (centres unmarked) [compound 6] | > 80% | > 80% | > 80% | > 80%
7 | – | Clc1cccc(C(Cc2nccc3ccccc23)NC2=NCCS2)c1Cl (centres unmarked) [compound 8] | > 80% | > 80% | > 80% | > 80%
8 | – | Clc1cccc(C(Cc2ccc3ccccc3n2)NC2=NCCS2)c1Cl (centres unmarked) [compound 9] | > 80% | > 80% | > 80% | > 80%
9 | – | Clc1cccc(C(Cc2cccnc2)NC2=NCCS2)c1Cl (centres unmarked) [compound 13] | – | – | > 80% | –
10 | – | Cc1cc(CC(NC2=NCCS2)c2cccc(Cl)c2Cl)on1 (centres unmarked) [compound 23] | > 80% | – | – | –
11 | – | CCc1cc(CC(NC2=NCCS2)c2cccc(Cl)c2Cl)on1 (centres unmarked) [compound 24] | – | > 80% | > 80% | –
12 | – | Cc1nc(CC(NC2=NCCS2)c2cccc(Cl)c2Cl)oc1C (centres unmarked) [compound 31] | > 80% | – | – | –
13 | – | c1ccc(C(Cc2ccco2)NC2=NCCS2)cc1 (centres unmarked) [compound 38] | – | > 80% | > 80% | –
14 | – | c1ccc(C(Cc2cccs2)NC2=NCCS2)cc1 (centres unmarked) [compound 39] | – | > 80% | > 80% | –
